Assay [1] deals with T1, Alcaligenes faecalis Penicillin G acylase mutant A:M143V (Alcaligenes faecalis, UniProt O34142, M169V).
T1 construct: alpha 202 aa, beta 551 aa; recombinant, E. coli host
T1 sequence (O34142 27-228 M169V): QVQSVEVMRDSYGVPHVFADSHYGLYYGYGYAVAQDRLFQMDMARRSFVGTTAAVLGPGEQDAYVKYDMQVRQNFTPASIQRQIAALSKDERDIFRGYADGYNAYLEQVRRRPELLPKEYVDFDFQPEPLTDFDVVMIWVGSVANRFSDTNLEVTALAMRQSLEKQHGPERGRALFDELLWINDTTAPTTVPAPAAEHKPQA
T1 sequence (O34142 266-816): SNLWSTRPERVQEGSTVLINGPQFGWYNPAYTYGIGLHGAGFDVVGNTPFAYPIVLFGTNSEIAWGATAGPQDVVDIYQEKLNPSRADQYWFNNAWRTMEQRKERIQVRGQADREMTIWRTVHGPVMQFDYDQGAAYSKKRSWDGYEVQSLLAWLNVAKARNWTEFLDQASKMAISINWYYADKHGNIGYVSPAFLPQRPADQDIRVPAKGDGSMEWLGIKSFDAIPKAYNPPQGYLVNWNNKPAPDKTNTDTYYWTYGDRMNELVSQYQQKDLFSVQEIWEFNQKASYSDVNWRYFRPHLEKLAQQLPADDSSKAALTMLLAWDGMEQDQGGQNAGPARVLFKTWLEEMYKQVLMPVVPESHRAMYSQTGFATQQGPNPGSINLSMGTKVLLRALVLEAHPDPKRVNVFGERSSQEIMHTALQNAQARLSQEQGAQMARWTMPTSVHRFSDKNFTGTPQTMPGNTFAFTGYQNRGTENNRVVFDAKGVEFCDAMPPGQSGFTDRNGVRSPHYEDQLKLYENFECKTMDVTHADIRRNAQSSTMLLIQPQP
Briefly: Deacylation kinetics and phenylacetic acid product inhibition, mutant A:M143V. The following applies: from progress curves of NIPAB deacylation, 25° C., 0.1 M NaH2PO4.H2O buffer pH 7.5, read-out: Ki Phenylacetic acid (inhibition constant, dissociation constant). It counts as biochemical. The procedure: In order to determine enzymatic activity the acylases were incubated with substrate at room temperature in buffered solution. In case β-lactamase impurity was expected to be present in the enzyme preparations, 1.0 mM -lactamase inhibitor 6-bromo-penicillanic acid was added to the assay. The reactions were stopped by adding an excess PMSF. For some mutants which were less sensitive to PMSF inhibition, the reactions were stopped by adding 0.5 M HCl or 0.5 M acetic acid until the pH was between 3 and 4. When reactions were subsequently analysed by HPLC, the reactions were stopped by dilution with the correponding elution solvent (see table 1). […]
The composition of the reaction mixtures was determined by high-performanceliquid chromatography (HPLC)(table 1). Concentrations were determined by using standards of known concentration.
In a continuous assay Penicillin G acylase was assayed spectro-fotometrically with the chromogenic substrate NIPAB [6-nitro-3-phenylacetamido-benzoic acid]. The liberation of 3-amino-6-nitrobenzoic acid was monitored by measuring the extinction at 405 nm in a Kontron 610 kinetic spectrofotometer. […]
Initial rate measurements were performed with excess substrate over the enzyme. Catalytic parameters were derived from least-squares fitting of the measured initial rates plotted for various substrate concentrations according to the Michaelis-Menten equation. […]

Assay [2] has as its target T2, Alcaligenes faecalis Penicillin G acylase mutant B:L56A (Alcaligenes faecalis, UniProt O34142, L321A).
T2 construct: alpha 202 aa, beta 551 aa; recombinant, E. coli host
T2 sequence (O34142 27-228): T1 sequence (O34142 27-228 M169V) with V143M
T2 sequence (O34142 266-816 L321A): T1 sequence (O34142 266-816) with L56A
The assay can be described thus: NIPAB kinetics and phenylacetic acid product inhibition, mutant B:L56A. The assay is classed as biochemical. Conditions: from progress curves of NIPAB deacylation, 25° C., 0.1 M NaH2PO4.H2O buffer pH 7.5, read-out: Ki Phenylacetic acid (inhibition constant, dissociation constant). The procedure: In a continuous assay Penicillin G acylase was assayed spectro-fotometrically with the chromogenic substrate NIPAB [6-nitro-3-phenylacetamido-benzoic acid]. The liberation of 3-amino-6-nitrobenzoic acid was monitored by measuring the extinction at 405 nm in a Kontron 610 kinetic spectrofotometer. Measuring maximal rate, the assays were performed at 25° C. using 20 mM NaH2 PO4.H2 O at pH 7.5 with 20 mM NIPAB and 100 μl enzym solution (at a proper dilution). Initial rate measurements were performed with varying concentration of NIPAB.
Initial rate measurements were performed with excess substrate over the enzyme. Catalytic parameters were derived from least-squares fitting of the measured initial rates plotted for various substrate concentrations according to the Michaelis-Menten equation.
The complete conversion of NIPAB was followed as a funtion of time at 20, 50 and 100 μM NIPAB by following the increase in absorbtion at 405 nm. Products of this conversion are phenylacetic acid and 3-amino-6-nitrobenzoic acid. The conversion was performed at 25° C. in 0.1 M NaH2 PO4.H2 O buffer pH 7.5. The progress curves of the deacylation of NIPAB could be fitted very well when product inhibition by phenylacetic acid was taken into account. […]

The values below come from patent US6033823A, “Mutated penicillin G acylase genes” (priority 1994, dated 2000).

Positions count from the first letter of the chain named.

With `O=C(O)Cc1ccccc1` [phenylacetic acid], the values for the inhibition constant (Ki) in assay [1] and in assay [2] were 74 µM and 59 µM, respectively.

For orientation: Ki means the dissociation constant of the complex between target and ligand, obtained from inhibition or displacement.
